Data published in the supplement of paper PMC10307832.

Key:
Test in all cases: relative viability (nuclei count vs DMSO), 5 days (fraction); higher = more cells survive
BX 795 + Linsitinib = compound: O=C(NCCCNc1nc(Nc2cccc(NC(=O)N3CCCC3)c2)ncc1I)c1cccs1 [BX 795] + C[C@]1(O)C[C@@H](c2nc(-c3ccc4ccc(-c5ccccc5)nc4c3)c3c(N)nccn32)C1 [Linsitinib] (partner 1 µM)
Outline: (§1)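 For relative viability, nuclei counts in treated wells were divided by those in vehicle wells. Lung cancer cell lines had been pin-tool dosed in 1536-well plates the day after seeding and cultured for 5 days, then fixed and stained in one step (final 0.05% Triton X-100, 1% formaldehyde, 1 ug/ml Hoechst) and imaged at 4×. Doses were one drug alone or a fixed anchor-drug dose plus five library-drug doses (not always all listed) in √10 steps, and values are duplicate-plate medians.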

BX 795 + Crizotinib = compound: O=C(NCCCNc1nc(Nc2cccc(NC(=O)N3CCCC3)c2)ncc1I)c1cccs1 [BX 795] + C[C@@H](Oc1cc(-c2cnn(C3CCNCC3)c2)cnc1N)c1c(Cl)ccc(F)c1Cl [Crizotinib] (partner 1 µM)
Outline: as §1

BX 795 + Palbociclib = compound: O=C(NCCCNc1nc(Nc2cccc(NC(=O)N3CCCC3)c2)ncc1I)c1cccs1 [BX 795] + CC(=O)c1c(C)c2cnc(Nc3ccc(N4CCNCC4)cn3)nc2n(C2CCCC2)c1=O [Palbociclib] (partner 0.5 µM)
Outline: as §1

BX 795 + AZD7762 = compound: O=C(NCCCNc1nc(Nc2cccc(NC(=O)N3CCCC3)c2)ncc1I)c1cccs1 [BX 795] + NC(=O)Nc1cc(-c2cccc(F)c2)sc1C(=O)N[C@H]1CCCNC1 [AZD7762] (partner 0.2 µM)
Outline: as §1

BX 795 + Pemetrexed = compound: O=C(NCCCNc1nc(Nc2cccc(NC(=O)N3CCCC3)c2)ncc1I)c1cccs1 [BX 795] + Nc1nc2[nH]cc(CCc3ccc(C(=O)N[C@@H](CCC(=O)O)C(=O)O)cc3)c2c(=O)[nH]1 [Pemetrexed] (partner 0.2 µM)
Outline: as §1

Cell Line	relative viability (BX 795 + Linsitinib; first compound 0.04 µM)	relative viability (BX 795 + Linsitinib; first compound 0.1265 µM)	relative viability (BX 795 + Linsitinib; first compound 0.4 µM)	relative viability (BX 795 + Linsitinib; first compound 1.265 µM)	relative viability (BX 795 + Crizotinib; first compound 0.04 µM)	relative viability (BX 795 + Crizotinib; first compound 0.1265 µM)	relative viability (BX 795 + Crizotinib; first compound 0.4 µM)	relative viability (BX 795 + Crizotinib; first compound 1.265 µM)	relative viability (BX 795 + Palbociclib; first compound 0.04 µM)	relative viability (BX 795 + Palbociclib; first compound 0.4 µM)	relative viability (BX 795 + Palbociclib; first compound 1.265 µM)	relative viability (BX 795 + AZD7762; first compound 0.04 µM)	relative viability (BX 795 + AZD7762; first compound 0.1265 µM)	relative viability (BX 795 + AZD7762; first compound 0.4 µM)	relative viability (BX 795 + AZD7762; first compound 1.265 µM)	relative viability (BX 795 + Palbociclib; first compound 0.1265 µM)	relative viability (BX 795 + Pemetrexed; first compound 0.04 µM)	relative viability (BX 795 + Pemetrexed; first compound 0.1265 µM)	relative viability (BX 795 + Pemetrexed; first compound 0.4 µM)	relative viability (BX 795 + Pemetrexed; first compound 1.265 µM)
A549	0.579	0.646	0.574	0.552	0.725	0.71	0.777	0.128												
ABC-1	0.849	0.914	0.765	0.549	1.2	1.23	1.03	0.3	0.768	0.765	0.727	0.83	0.924	0.745	0.838					
COR-L23	0.909	0.827	0.961	0.4	0.724	0.703	0.466	0.204	0.359	0.253	0.191					0.287	0.204	0.188	0.176	0.171
COR-L 105	1.08	0.768	0.849	0.447	0.789	0.588	0.56	0.279	0.453	0.401	0.314					0.338	1.12	1.02	0.816	0.882
IA-LM	0.615	0.452	0.769	0.626	0.78	0.936	1.32	0.546												
NCI-H520	0.746	1.06	0.859	0.359	0.662	0.571	0.443	0.249	0.189	0.187	0.177					0.263	0.393	0.7	0.341	0.335
NCI-H522									0.958	0.943	0.982	0.716	0.811	0.777	0.785	0.969	1.13	1.16	1.08	1.02
NCI-H596	1.09	1.25	1.16	1.03	1.08	1.02	1.03	0.874				1.11	0.956	1.14	1.03		0.464	0.476	0.456	0.527
NCI-H661	0.615	0.641	0.34	0.433	1.06	1.02	1.12	0.865	0.463	0.429	0.444					0.429	0.855	0.98	0.521	0.784
NCI-H727	0.294	0.247	0.277	0.24	0.868	0.986	0.634	0.492	0.634	0.67	0.696	0.614	0.535	0.671	0.531	0.61				
NCI-H1563	1.36	1.23	1.3	0.905	0.852	0.849	0.82	0.617									0.977	0.759	0.857	0.746
NCI-H1650					0.98	0.969	0.786	0.591	0.394	0.319	0.289					0.328	0.392	0.431	0.243	0.416
NCI-H2009	1.27	1.19	1.19	0.871	1.02	0.972	0.874	0.645	0.24	0.185	0.167					0.233	0.973	0.978	1.04	0.907
NCI-H2023	0.572	0.71	0.445	0.314	0.592	0.626	0.269	0.282	0.4	0.358	0.17					0.366	0.257	0.221	0.139	0.182
NCI-H2228	1.25	0.643	0.662	0.474	0.635	0.5	0.572	0.288	1.07	0.974	0.658					0.787	0.329	0.331	0.268	0.281
NCI-H2342									0.599	0.47	0.498	0.591	0.538	0.481	0.399	0.518	0.782	0.718	0.758	0.715
SK-LU-1	1.03	1.13	0.722	0.777	0.96	0.92	0.459	0.498	0.384	0.328	0.392					0.348	0.895	0.988	0.646	0.823
SK-MES-1	1.11	0.985	0.992	0.745	1.13	0.939	0.836	0.78	0.303	0.271	0.286					0.302	0.923	0.854	0.612	0.649
SW 1573	0.962	0.873	1.02	0.629	0.832	0.887	0.584	0.667	0.537	0.468	0.172					0.428	0.748	0.81	0.836	0.516
UMC-11	0.751	1.02	0.95	0.348	0.608	0.584	0.322	0.0915	0.301	0.306	0.333					0.355	0.826	0.749	0.736	0.453
